For the assay, the system named is C57BL/6-Atp7a^mo-br mice (mo-br mice). Kind of assay: Survival in a mouse model of Menkes disease (mo-br mice). Type of assay: in vivo. To be noted: single treatments, FIG. 5. The text has this:
FIG. 5 is a graph showing survival of mo-br mice treated with rAAV9-co-rsATP7A (AAV9) and copper histidinate, untreated (UT), treated with AAV9co alone, or treated with copper histidinate alone.
FIG. 6 is a graph showing survival to weaning (dark gray bars) or prolonged survival (light gray bars) in untreated (UT) mice, mice treated with AAV5-rsATP7A and copper histidinate (AAV5+Cu), AAVrh10-rsATP7A and copper histidinate (AAVrh10+copper), AAV9-rsATP7A and copper (AAV9+Cu), and AAV9 co-rsATP7A and copper (AAV9co+Cu). rsATP7A is reduced-size ATP7A cDNA (native sequence (non-codon-optimized)).
The AAV9 co-rsATP7A described in Example 2 was administered to C57BL/6-Atp7a^mo-br mice (mo-br mice) by intracerebroventricular injection. The mice were injected bilaterally on day two of life with 1.6×10^9 vg in 5 μl of lactated Ringer's solution. Some of the mice were also treated with copper histidinate (15 μg) by subcutaneous injection during the first week of life (5 μg, d4-6). About 70% of the mice treated with combination AAV9 co-rsATP7A and copper histidinate survived at least 100 days (FIG. 5).
Different AAV serotypes were also tested for efficacy in mo-br mice.

A value given as a limit tells only on which side of the number the result lay.

The text below walks through data of patent US12173306B2, “Codon-optimized reduced-size ATP7A CDNA and uses for treatment of copper transport disorders” (The United States of America, as represented by the …, priority 2015, dated 2024).

Turning to copper histidinate, the “survival time (did not survive past)” value is not above 28 days.
